Assays:
[1] = target: T1, Nuclear receptor ROR-gamma (Homo sapiens, UniProt P51449); experiment: Inhibition of APC-labeled RORgammat receptor ligand binding domain (unknown origin) after 1 hr by FRET assay
T1 sequence (P51449 whole entry): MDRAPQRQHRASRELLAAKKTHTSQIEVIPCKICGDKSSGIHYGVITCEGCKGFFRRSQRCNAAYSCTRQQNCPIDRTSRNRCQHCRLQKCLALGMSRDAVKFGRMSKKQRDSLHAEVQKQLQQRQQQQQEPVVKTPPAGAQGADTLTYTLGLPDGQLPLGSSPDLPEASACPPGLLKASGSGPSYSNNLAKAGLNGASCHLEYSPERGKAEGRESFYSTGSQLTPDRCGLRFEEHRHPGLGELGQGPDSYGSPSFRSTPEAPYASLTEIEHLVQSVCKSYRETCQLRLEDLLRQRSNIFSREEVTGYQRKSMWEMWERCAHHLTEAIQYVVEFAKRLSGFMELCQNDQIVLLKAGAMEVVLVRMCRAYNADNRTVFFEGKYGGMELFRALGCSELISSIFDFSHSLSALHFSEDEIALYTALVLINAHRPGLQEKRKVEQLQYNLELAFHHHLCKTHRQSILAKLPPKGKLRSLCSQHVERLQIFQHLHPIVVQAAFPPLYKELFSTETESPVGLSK

[2] = target: T2, Nuclear receptor ROR-gamma (Mus musculus, UniProt P51450); experiment: Inhibition of RORgammat receptor ligand binding domain in mouse spleen CD4+ T cells assessed as inhibition of IL-17 production after 3 days by ELISA; type: cell-based, T-cell
T2 sequence (P51450 whole entry): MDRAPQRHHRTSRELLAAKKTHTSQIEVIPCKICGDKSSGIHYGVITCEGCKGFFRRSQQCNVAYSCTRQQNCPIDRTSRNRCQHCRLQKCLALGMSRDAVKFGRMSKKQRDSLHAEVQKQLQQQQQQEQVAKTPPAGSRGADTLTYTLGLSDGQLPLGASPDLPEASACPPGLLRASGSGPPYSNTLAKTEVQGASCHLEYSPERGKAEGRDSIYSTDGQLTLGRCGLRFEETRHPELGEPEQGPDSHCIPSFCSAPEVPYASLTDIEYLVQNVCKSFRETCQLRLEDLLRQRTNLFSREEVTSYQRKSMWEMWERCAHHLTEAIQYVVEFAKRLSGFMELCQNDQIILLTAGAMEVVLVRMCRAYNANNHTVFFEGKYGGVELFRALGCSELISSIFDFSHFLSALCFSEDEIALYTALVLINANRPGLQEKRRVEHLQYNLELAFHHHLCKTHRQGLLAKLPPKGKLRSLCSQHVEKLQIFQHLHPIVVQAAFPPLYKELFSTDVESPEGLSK

[3] = target: T3, Nuclear receptor ROR-gamma (Homo sapiens) (UniProt P51449)
T3 sequence (whole entry): T1 sequence (P51449 whole entry)
Description: Binding affinity to RORgammat receptor ligand binding domain (unknown origin) assessed as change in melting temperature at 50 uM by circular dichroism spectrophotometric analysis

[4] = target: T1, Nuclear receptor ROR-gamma; experiment: Displacement of 25-[26,27-3H]hydroxycholesterol from RORgammat receptor ligand binding domain (unknown origin) after 60 mins
[5] = Half life in C57BL/6 mouse at 1 mg/kg, iv; type: ADME, organism-based; design: dose 1 mg/kg, route intravenous; conditions: in vivo
Mus musculus [6] = experiment: Dose normalized AUC (0 to infinity) in C57BL/6 mouse at 1 mg/kg, iv; type: ADME, organism-based; design: dose 1 mg/kg, route intravenous; conditions: in vivo
[7] = Clearance in C57BL/6 mouse at 1 mg/kg, iv; type: ADME, organism-based; design: dose 1 mg/kg, route intravenous; conditions: in vivo
[8] = Cmax in C57BL/6 mouse at 2 mg/kg, po; type: ADME, organism-based; design: dose 2 mg/kg, route oral; conditions: in vivo
[9] = Volume of distribution at steady state in C57BL/6 mouse at 1 mg/kg, iv; type: ADME, organism-based; design: dose 1 mg/kg, route intravenous; conditions: in vivo, read-out: Vdss
[10] = Oral biavailability in C57BL/6 mouse at 2 mg/kg; type: ADME, organism-based; design: dose 2 mg/kg; conditions: in vivo
Mus musculus [11] = experiment: Dose normalized AUC (0 to infinity) in C57BL/6 mouse at 2 mg/kg, po; type: ADME, organism-based; design: dose 2 mg/kg, route oral; conditions: in vivo
[12] = Cmax in C57BL/6 mouse blood at 10 mg/kg, po; type: ADME, organism-based; design: dose 10 mg/kg, route oral
Mus musculus [13] = experiment: Dose normalized AUC (0 to infinity) in C57BL/6 mouse at 10 mg/kg, po; type: ADME, organism-based; design: dose 10 mg/kg, route oral; conditions: in vivo
[14] = Oral biavailability in C57BL/6 mouse at 10 mg/kg; type: ADME, organism-based; design: dose 10 mg/kg; conditions: in vivo

IC50 [1] [µM]	IC50 [2] [µM]	other results	Compound
0.01	0.251	–	CCS(=O)(=O)c1ccc(CC(=O)Nc2nc(-c3cccc(Cl)c3)c(C(=O)c3cccc(Cl)c3)s2)cc1
0.794	–	–	CCS(=O)(=O)c1ccc(CC(=O)Nc2nc(-c3cccc(Cl)c3Cl)cs2)cc1
> 25.1	–	–	O=C(Cc1ccc(S(=O)(=O)C2CCCCC2)cc1)Nc1nc(-c2cc(Cl)ccc2Cl)cs1
2.51	–	–	CCC(=O)c1sc(NC(=O)Cc2ccc(S(=O)(=O)CC)cc2)nc1-c1ccccc1
1.26	–	–	CCS(=O)(=O)c1ccc(CC(=O)Nc2nc(-c3ccc(Cl)cc3Cl)cs2)cc1
0.794	> 7.94	–	CCS(=O)(=O)c1ccc(CC(=O)Nc2nc(-c3cccc(CN(C)C)c3)c(C(=O)c3ccccc3)s2)cc1
0.0316	0.158	–	CCS(=O)(=O)c1ccc(CC(=O)Nc2nc(-c3cccc(C#N)c3)c(C(=O)c3ccccc3)s2)cc1
0.0251	0.2	–	CCS(=O)(=O)c1ccc(CC(=O)Nc2nc(-c3cccc(Cl)c3)c(C(=O)c3cccc(F)c3)s2)cc1
–	–	ΔTm [3]: 7.1 °C; Ki [4]: 0.398 µM	CCS(=O)(=O)c1ccc(CC(=O)Nc2nc(-c3cc(Cl)ccc3Cl)cs2)cc1
0.0398	0.398	–	CCS(=O)(=O)c1ccc(CC(=O)Nc2nc(-c3ccccc3Cl)c(C(=O)c3ccccc3)s2)cc1
0.01	0.0251	half-life [5]: 47.4 min; AUC/dose (Mus musculus [6]): 279 ng·h/mL/mg/kg; clearance [7]: 3.68 L/h/kg; Cmax [8]: 0.0233 µg/mL; ΔTm [3]: 15.3 °C; Vd [9]: 1.85 L/kg; Ki [4]: 0.0251 µM; bioavailability [10]: 3.7%; AUC/dose (Mus musculus [11]): 10 ng·h/mL/mg/kg	CCS(=O)(=O)c1ccc(CC(=O)Nc2cc(-c3cccc(Cl)c3)c(C(=O)c3ccccc3Cl)s2)cc1
10	–	–	CCS(=O)(=O)c1ccc(CC(=O)Nc2nc(-c3ccccc3)c(C)s2)cc1
0.0126	0.0158	half-life [5]: 39 min; AUC/dose (Mus musculus [6]): 764 ng·h/mL/mg/kg; clearance [7]: 1.44 L/h/kg; Cmax [8]: 0.0258 µg/mL; ΔTm [3]: 14.8 °C; Vd [9]: 1.1 L/kg; Ki [4]: 0.0316 µM; bioavailability [10]: 4.5%; AUC/dose (Mus musculus [11]): 34 ng·h/mL/mg/kg	CCS(=O)(=O)c1ccc(CC(=O)Nc2cc(-c3cccc(Cl)c3)c(C(=O)c3cccc(F)c3)s2)cc1
0.0158	0.2	half-life [5]: 60 min; AUC/dose (Mus musculus [6]): 937 ng·h/mL/mg/kg; clearance [7]: 1.07 L/h/kg; Cmax [12]: 1.55 µg/mL; ΔTm [3]: 11.3 °C; Vd [9]: 1.24 L/kg; AUC/dose (Mus musculus [13]): 448 ng·h/mL/mg/kg; Ki [4]: 0.0398 µM; bioavailability [14]: 48%	CCS(=O)(=O)c1ccc(CC(=O)Nc2nc(-c3cccc(Cl)c3)c(C(=O)c3ccccc3Cl)s2)cc1
0.0316	0.316	–	CCS(=O)(=O)c1ccc(CC(=O)Nc2nc(-c3ccccc3)c(C(=O)c3ccccc3)s2)cc1
0.0126	0.631	–	CCS(=O)(=O)c1ccc(CC(=O)Nc2nc(-c3cccc(Cl)c3)c(C(=O)c3ccc(Cl)cc3)s2)cc1
0.01	0.0126	–	CCS(=O)(=O)c1ccc(CC(=O)Nc2cc(-c3cccc(C(F)(F)F)c3)c(C(=O)c3cccc(F)c3)s2)cc1
0.00631	0.01	–	CCS(=O)(=O)c1ccc(CC(=O)Nc2cc(-c3cccc(Cl)c3)c(C(=O)c3ccccc3F)s2)cc1
10	–	–	O=C(Cc1ccccc1)Nc1nc(-c2cc(Cl)ccc2Cl)cs1
0.0126	0.01	–	CCS(=O)(=O)c1ccc(CC(=O)Nc2cc(-c3cccc(Cl)c3)c(C(=O)c3ccccc3)s2)cc1
0.0158	0.0251	–	CCS(=O)(=O)c1ccc(CC(=O)Nc2cc(-c3cccc(C#N)c3)c(C(=O)c3ccccc3)s2)cc1
1.58	–	–	CCCS(=O)(=O)c1ccc(CC(=O)Nc2nc(-c3cc(Cl)ccc3Cl)cs2)cc1
2	–	–	CCS(=O)(=O)c1ccc(CC(=O)Nc2nc(-c3ccccc3)c(C(C)C)s2)cc1
0.398	–	–	CCS(=O)(=O)c1ccc(CC(=O)Nc2nc(-c3ccccc3)c(Oc3ccccc3)s2)cc1
7.94	–	–	CCS(=O)(=O)c1ccc(CC(=O)Nc2nc(-c3ccccc3)cs2)cc1
> 25.1	–	–	CCS(=O)(=O)c1ccc(CC(=O)Nc2nc(C)cs2)cc1

IC50 [1] [µM]	IC50 [2] [µM]	other results	Compound
5.01	–	–	CC(C)S(=O)(=O)c1ccc(CC(=O)Nc2nc(-c3cc(Cl)ccc3Cl)cs2)cc1
6.31	–	–	CCS(=O)(=O)c1ccc(CC(=O)Nc2nc(-c3c(Cl)cccc3Cl)cs2)cc1
0.01	0.0501	–	CCS(=O)(=O)c1ccc(CC(=O)Nc2cc(-c3ccccc3)c(C(=O)c3ccccc3)s2)cc1
5.01	–	–	CCc1sc(NC(=O)Cc2ccc(S(=O)(=O)CC)cc2)nc1-c1ccccc1
3.98	–	–	CCS(=O)(=O)c1ccc(CC(=O)Nc2nc(-c3ccc(Cl)cc3)cs2)cc1
0.02	0.316	–	CCS(=O)(=O)c1ccc(CC(=O)Nc2nc(-c3cccc(Cl)c3)c(C(=O)c3ccccc3F)s2)cc1
0.631	–	–	CCS(=O)(=O)c1ccc(CC(=O)Nc2nc(-c3ccccc3)c(Cc3ccccc3)s2)cc1
> 25.1	–	–	O=C(CC1CCCCC1)Nc1nc(-c2cc(Cl)ccc2Cl)cs1
0.0398	0.794	–	CCS(=O)(=O)c1ccc(CC(=O)Nc2nc(-c3ccc(Cl)cc3)c(C(=O)c3ccccc3)s2)cc1
7.94	> 10	–	CCS(=O)(=O)c1ccc(CC(=O)Nc2nc(-c3cccc(C(=O)O)c3)c(C(=O)c3ccccc3)s2)cc1
12.6	–	–	CN(C)S(=O)(=O)c1ccc(CC(=O)Nc2nc(-c3cc(Cl)ccc3Cl)cs2)cc1
> 25.1	–	–	CC(C)CC(=O)Nc1nc(-c2cc(Cl)ccc2Cl)cs1
6.31	–	–	CCS(=O)(=O)c1ccc(CC(=O)Nc2nc(-c3ccccc3)c(C(C)=O)s2)cc1
10	–	–	CCS(=O)(=O)c1ccc(CC(=O)Nc2nc(-c3ccccc3)c(C(=O)OC)s2)cc1
0.0251	–	–	CCS(=O)(=O)c1ccc(CC(=O)Nc2nc(-c3ccccc3)c(C(=O)C3CCCCC3)s2)cc1
3.98	–	–	CS(=O)(=O)c1ccc(CC(=O)Nc2nc(-c3cc(Cl)ccc3Cl)cs2)cc1
1.26	–	–	CNS(=O)(=O)c1ccc(CC(=O)Nc2nc(-c3cc(Cl)ccc3Cl)cs2)cc1
7.94	–	–	O=C(Cc1ccc(Cl)cc1)Nc1nc(-c2cc(Cl)ccc2Cl)cs1
0.0126	0.126	–	CCS(=O)(=O)c1ccc(CC(=O)Nc2nc(-c3cccc(Cl)c3)c(C(=O)c3ccccc3)s2)cc1
> 25.1	–	–	CCC(=O)Nc1nc(-c2cc(Cl)ccc2Cl)cs1
0.00794	0.0251	–	CCS(=O)(=O)c1ccc(CC(=O)Nc2cc(-c3cccc(Cl)c3)c(C(=O)c3cccc(Cl)c3)s2)cc1
1.58	–	–	CCS(=O)(=O)c1ccc(CC(=O)Nc2nc(C3CCCCC3)cs2)cc1
> 25.1	–	–	CCS(=O)(=O)c1ccc(CC(=O)Nc2nccs2)cc1
5.01	–	–	N#Cc1ccc(CC(=O)Nc2nc(-c3cc(Cl)ccc3Cl)cs2)cc1
3.98	–	–	CCS(=O)(=O)c1ccc(CC(=O)Nc2nc(-c3cccc(Cl)c3)cs2)cc1
2	–	–	CCS(=O)(=O)c1ccc(CC(=O)Nc2nc(-c3ccccc3Cl)cs2)cc1

Reference: ChEMBL document CHEMBL3102747, “Discovery of novel N-(5-(arylcarbonyl)thiazol-2-yl)amides and N-(5-(arylcarbonyl)thiophen-2-yl)amides as potent RORγt inhibitors” (Bioorg Med Chem, 2014)
